Reference: article PMC6421522, “Designing Dual Inhibitors of Anaplastic Lymphoma Kinase (ALK) and Bromodomain-4 (BRD4) by Tuning Kinase Selectivity” (Journal of Medicinal Chemistry, 2019)

Legend:
Assay in all cases: KINOMEscan scanEDGE
Type in all cases: binding
Settings in all cases: read-out: % Control (1µM)
AXL = biological target: T1, AXL (Homo sapiens, UniProt P30530)
T1 construct: purchased DiscoveRx KINOMEscan (scanEDGE); Thermo Fisher SelectScreen (Z'-LYTE) for PLK-1
Method: (§1) Compound X was assayed at 1 μM in the DiscoveRx KINOMEscan (scanEDGE) assay platform. The results for single-concentration binding interactions are reported as “%Ctrl” (DMSO = 100%Ctrl), where lower numbers indicate stronger hits.

KIT(V559D,T670I) = biological target: T2, KIT(V559D,T670I) (Homo sapiens, UniProt P10721, T670I/V559D)
T2 construct: purchased DiscoveRx KINOMEscan (scanEDGE); Thermo Fisher SelectScreen (Z'-LYTE) for PLK-1
T2 sequence (P10721 26-976 V559D/T670I): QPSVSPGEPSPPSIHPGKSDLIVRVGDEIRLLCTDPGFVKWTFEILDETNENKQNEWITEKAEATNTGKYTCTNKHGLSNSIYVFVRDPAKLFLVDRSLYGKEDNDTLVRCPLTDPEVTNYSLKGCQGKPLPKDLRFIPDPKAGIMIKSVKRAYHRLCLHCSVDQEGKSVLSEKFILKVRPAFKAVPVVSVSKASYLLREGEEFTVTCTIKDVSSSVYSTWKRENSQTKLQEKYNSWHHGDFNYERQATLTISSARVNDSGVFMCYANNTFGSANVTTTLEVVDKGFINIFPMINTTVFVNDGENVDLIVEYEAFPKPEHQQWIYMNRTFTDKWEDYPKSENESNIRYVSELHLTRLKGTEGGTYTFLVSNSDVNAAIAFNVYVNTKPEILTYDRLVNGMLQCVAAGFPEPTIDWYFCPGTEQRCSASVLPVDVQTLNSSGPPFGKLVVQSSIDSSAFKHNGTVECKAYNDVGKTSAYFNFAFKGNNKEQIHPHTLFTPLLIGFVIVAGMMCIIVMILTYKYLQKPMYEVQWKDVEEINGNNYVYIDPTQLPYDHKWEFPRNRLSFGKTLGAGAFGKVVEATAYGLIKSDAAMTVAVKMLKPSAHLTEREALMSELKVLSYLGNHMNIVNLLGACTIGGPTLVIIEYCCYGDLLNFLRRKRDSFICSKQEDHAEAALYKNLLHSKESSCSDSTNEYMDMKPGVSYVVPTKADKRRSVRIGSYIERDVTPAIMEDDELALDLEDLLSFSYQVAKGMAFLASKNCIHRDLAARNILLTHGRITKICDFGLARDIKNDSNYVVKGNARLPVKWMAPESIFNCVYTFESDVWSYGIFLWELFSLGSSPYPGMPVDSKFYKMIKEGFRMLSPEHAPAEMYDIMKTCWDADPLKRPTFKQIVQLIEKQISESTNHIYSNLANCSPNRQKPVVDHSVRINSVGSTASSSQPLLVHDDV
Method: as §1

PAK1 = biological target: T3, PAK1 (Homo sapiens, UniProt Q13153)
T3 construct: purchased DiscoveRx KINOMEscan (scanEDGE); Thermo Fisher SelectScreen (Z'-LYTE) for PLK-1
Method: as §1

PIK3CG = biological target: T4, PIK3CG (Homo sapiens, UniProt P48736)
T4 construct: purchased DiscoveRx KINOMEscan (scanEDGE); Thermo Fisher SelectScreen (Z'-LYTE) for PLK-1
Method: as §1

ZAP70 = biological target: T5, ZAP70 (Homo sapiens, UniProt P43403)
T5 construct: purchased DiscoveRx (DiscoverX)
T5 sequence (P43403 whole entry): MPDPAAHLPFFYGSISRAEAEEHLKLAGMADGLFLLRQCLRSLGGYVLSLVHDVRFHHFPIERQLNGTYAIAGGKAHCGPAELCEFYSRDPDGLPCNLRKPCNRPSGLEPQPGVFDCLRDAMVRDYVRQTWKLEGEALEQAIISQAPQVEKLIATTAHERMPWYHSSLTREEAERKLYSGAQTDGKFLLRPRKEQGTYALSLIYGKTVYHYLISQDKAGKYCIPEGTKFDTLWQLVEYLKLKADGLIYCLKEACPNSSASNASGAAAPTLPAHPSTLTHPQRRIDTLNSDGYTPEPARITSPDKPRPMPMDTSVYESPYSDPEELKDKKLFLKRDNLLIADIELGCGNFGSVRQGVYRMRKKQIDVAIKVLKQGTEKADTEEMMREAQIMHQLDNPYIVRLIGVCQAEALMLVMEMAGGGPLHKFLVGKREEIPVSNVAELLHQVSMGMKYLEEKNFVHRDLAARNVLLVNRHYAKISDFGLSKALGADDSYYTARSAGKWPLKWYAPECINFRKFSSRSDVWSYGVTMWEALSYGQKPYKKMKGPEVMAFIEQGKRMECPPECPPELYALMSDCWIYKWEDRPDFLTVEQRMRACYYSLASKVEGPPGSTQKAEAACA
Method: as §1

PIM2 = biological target: T6, PIM2 (Homo sapiens, UniProt Q9P1W9)
T6 construct: purchased DiscoveRx KINOMEscan (scanEDGE); Thermo Fisher SelectScreen (Z'-LYTE) for PLK-1
Method: as §1

MLK1 = biological target: T7, MLK1 (Homo sapiens, UniProt P80192)
T7 construct: purchased DiscoveRx KINOMEscan (scanEDGE); Thermo Fisher SelectScreen (Z'-LYTE) for PLK-1
Method: as §1

BMPR2 = biological target: T8, BMPR2 (Homo sapiens, UniProt Q13873)
T8 construct: purchased DiscoveRx KINOMEscan (scanEDGE); Thermo Fisher SelectScreen (Z'-LYTE) for PLK-1
Method: as §1

EGFR(L858R) = biological target: T9, EGFR(L858R) (Homo sapiens, UniProt P00533, L858R)
T9 construct: purchased DiscoveRx KINOMEscan (scanEDGE); Thermo Fisher SelectScreen (Z'-LYTE) for PLK-1
T9 sequence (P00533 25-1210 L858R): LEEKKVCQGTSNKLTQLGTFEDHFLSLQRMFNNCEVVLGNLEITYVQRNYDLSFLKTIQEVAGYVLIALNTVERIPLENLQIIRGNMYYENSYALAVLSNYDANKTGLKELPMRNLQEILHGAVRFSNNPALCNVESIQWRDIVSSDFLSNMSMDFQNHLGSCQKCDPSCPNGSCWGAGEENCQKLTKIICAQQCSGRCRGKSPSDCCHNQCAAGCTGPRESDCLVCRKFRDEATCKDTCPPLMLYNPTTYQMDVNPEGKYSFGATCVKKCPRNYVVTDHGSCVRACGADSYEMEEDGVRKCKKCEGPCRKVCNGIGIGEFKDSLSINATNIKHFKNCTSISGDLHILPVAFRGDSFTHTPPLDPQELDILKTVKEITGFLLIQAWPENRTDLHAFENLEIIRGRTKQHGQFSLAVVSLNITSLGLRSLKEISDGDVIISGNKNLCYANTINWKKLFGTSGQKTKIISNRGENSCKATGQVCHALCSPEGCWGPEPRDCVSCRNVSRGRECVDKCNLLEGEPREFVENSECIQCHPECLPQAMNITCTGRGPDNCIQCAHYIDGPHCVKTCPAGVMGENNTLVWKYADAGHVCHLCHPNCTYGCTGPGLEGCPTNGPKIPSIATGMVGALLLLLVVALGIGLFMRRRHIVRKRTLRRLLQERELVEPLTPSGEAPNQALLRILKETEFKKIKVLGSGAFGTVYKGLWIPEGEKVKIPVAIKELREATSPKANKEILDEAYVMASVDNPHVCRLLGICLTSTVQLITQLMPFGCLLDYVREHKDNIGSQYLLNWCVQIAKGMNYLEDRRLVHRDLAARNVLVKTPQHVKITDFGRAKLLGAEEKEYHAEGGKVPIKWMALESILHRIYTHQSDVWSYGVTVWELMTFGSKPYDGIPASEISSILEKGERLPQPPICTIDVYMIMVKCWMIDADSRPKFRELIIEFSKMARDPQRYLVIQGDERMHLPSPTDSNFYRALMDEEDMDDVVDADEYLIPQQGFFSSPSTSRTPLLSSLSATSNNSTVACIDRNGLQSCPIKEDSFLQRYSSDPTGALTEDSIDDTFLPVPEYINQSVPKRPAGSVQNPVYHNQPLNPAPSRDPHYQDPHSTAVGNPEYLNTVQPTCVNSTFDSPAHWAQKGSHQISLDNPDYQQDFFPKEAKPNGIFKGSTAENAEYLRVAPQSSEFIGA
Method: as §1

YANK3 = biological target: T10, YANK3 (Homo sapiens, UniProt Q86UX6)
T10 construct: purchased DiscoveRx (DiscoverX)
Method: as §1

ADCK3 = biological target: T11, ADCK3 (Homo sapiens, UniProt Q8NI60)
T11 construct: purchased DiscoveRx KINOMEscan (scanEDGE); Thermo Fisher SelectScreen (Z'-LYTE) for PLK-1
Method: as §1

RAF1 = biological target: T12, RAF1 (Homo sapiens, UniProt P04049)
T12 construct: purchased DiscoveRx KINOMEscan (scanEDGE); Thermo Fisher SelectScreen (Z'-LYTE) for PLK-1
Method: as §1

PLK4 = biological target: T13, PLK4 (Homo sapiens, UniProt O00444)
T13 construct: purchased DiscoveRx KINOMEscan (scanEDGE); Thermo Fisher SelectScreen (Z'-LYTE) for PLK-1
Method: as §1

VEGFR2 = biological target: T14, VEGFR2 (Homo sapiens, UniProt P35968)
T14 construct: purchased DiscoveRx (DiscoverX)
Method: as §1

KIT(D816V) = biological target: T15, KIT(D816V) (Homo sapiens, UniProt P10721, D816V)
T15 construct: purchased DiscoveRx KINOMEscan (scanEDGE); Thermo Fisher SelectScreen (Z'-LYTE) for PLK-1
T15 sequence (P10721 26-976 D816V): as the sequence (P10721 26-976 V559D/T670I) above, with D534V, I645T, D791V counted along it
Method: as §1

MET = biological target: T16, MET (Homo sapiens, UniProt P08581)
T16 construct: purchased DiscoveRx KINOMEscan (scanEDGE); Thermo Fisher SelectScreen (Z'-LYTE) for PLK-1
Method: as §1

BRAF = biological target: T17, BRAF (Homo sapiens, UniProt P15056)
T17 construct: purchased DiscoveRx KINOMEscan (scanEDGE); Thermo Fisher SelectScreen (Z'-LYTE) for PLK-1
Method: as §1

PDGFRB = biological target: T18, PDGFRB (Homo sapiens, UniProt P09619)
T18 construct: purchased DiscoveRx KINOMEscan (scanEDGE); Thermo Fisher SelectScreen (Z'-LYTE) for PLK-1
Method: as §1

JNK1 = biological target: T19, JNK1 (Homo sapiens, UniProt P45983)
T19 construct: purchased DiscoveRx KINOMEscan (scanEDGE); Thermo Fisher SelectScreen (Z'-LYTE) for PLK-1
Method: as §1

PAK2 = biological target: T20, PAK2 (Homo sapiens, UniProt Q13177)
T20 construct: purchased DiscoveRx KINOMEscan (scanEDGE); Thermo Fisher SelectScreen (Z'-LYTE) for PLK-1
Method: as §1

ABL1-nonphosphorylated = biological target: T21, ABL1-nonphosphorylated (Homo sapiens, UniProt P00519)
T21 construct: purchased DiscoveRx KINOMEscan (scanEDGE); Thermo Fisher SelectScreen (Z'-LYTE) for PLK-1
Method: as §1

TGFBR1 = biological target: T22, TGFBR1 (Homo sapiens, UniProt P36897)
T22 construct: purchased DiscoveRx KINOMEscan (scanEDGE); Thermo Fisher SelectScreen (Z'-LYTE) for PLK-1
Method: as §1

ULK2 = biological target: T23, ULK2 (Homo sapiens, UniProt Q8IYT8)
T23 construct: purchased DiscoveRx (DiscoverX)
Method: as §1

PDPK1 = biological target: T24, PDPK1 (Homo sapiens, UniProt O15530)
T24 construct: purchased DiscoveRx KINOMEscan (scanEDGE); Thermo Fisher SelectScreen (Z'-LYTE) for PLK-1
Method: as §1

SNARK = biological target: T25, SNARK (Homo sapiens, UniProt Q9H093)
T25 construct: purchased DiscoveRx KINOMEscan (scanEDGE); Thermo Fisher SelectScreen (Z'-LYTE) for PLK-1
Method: as §1

AKT1 = biological target: T26, AKT1 (Homo sapiens, UniProt P31749)
T26 construct: purchased DiscoveRx KINOMEscan (scanEDGE); Thermo Fisher SelectScreen (Z'-LYTE) for PLK-1
Method: as §1

FGFR3 = biological target: T27, FGFR3 (Homo sapiens, UniProt P22607)
T27 construct: purchased DiscoveRx KINOMEscan (scanEDGE); Thermo Fisher SelectScreen (Z'-LYTE) for PLK-1
T27 sequence (P22607 23-806): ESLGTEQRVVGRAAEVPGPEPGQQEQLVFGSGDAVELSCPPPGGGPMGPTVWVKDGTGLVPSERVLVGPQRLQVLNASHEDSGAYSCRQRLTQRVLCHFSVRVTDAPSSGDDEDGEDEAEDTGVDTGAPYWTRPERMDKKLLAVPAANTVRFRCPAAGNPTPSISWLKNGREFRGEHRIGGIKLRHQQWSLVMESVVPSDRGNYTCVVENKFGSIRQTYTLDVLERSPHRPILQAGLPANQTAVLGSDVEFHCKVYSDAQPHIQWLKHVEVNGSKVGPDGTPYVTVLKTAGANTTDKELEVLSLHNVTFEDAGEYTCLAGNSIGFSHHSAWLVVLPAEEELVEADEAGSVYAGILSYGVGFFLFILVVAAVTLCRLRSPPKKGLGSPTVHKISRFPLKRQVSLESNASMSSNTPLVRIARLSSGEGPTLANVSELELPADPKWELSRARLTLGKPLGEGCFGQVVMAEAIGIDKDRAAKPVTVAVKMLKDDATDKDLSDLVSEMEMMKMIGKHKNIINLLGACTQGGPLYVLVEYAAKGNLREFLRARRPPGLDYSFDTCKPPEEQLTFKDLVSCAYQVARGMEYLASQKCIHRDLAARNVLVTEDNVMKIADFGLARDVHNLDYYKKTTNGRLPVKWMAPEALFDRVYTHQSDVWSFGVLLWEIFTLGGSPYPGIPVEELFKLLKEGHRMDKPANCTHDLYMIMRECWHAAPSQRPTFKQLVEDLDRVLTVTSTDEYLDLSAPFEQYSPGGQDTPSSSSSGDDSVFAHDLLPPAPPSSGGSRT
Method: as §1

FAK = biological target: T28, FAK (Homo sapiens, UniProt Q05397)
T28 construct: purchased DiscoveRx KINOMEscan (scanEDGE); Thermo Fisher SelectScreen (Z'-LYTE) for PLK-1
Method: as §1

LKB1 = biological target: T29, LKB1 (Homo sapiens, UniProt Q15831)
T29 construct: purchased DiscoveRx KINOMEscan (scanEDGE); Thermo Fisher SelectScreen (Z'-LYTE) for PLK-1
Method: as §1

MAPKAPK2 = biological target: T30, MAPKAPK2 (Homo sapiens, UniProt P49137)
T30 construct: purchased DiscoveRx KINOMEscan (scanEDGE); Thermo Fisher SelectScreen (Z'-LYTE) for PLK-1
Method: as §1

PIM1 = biological target: T31, PIM1 (Homo sapiens, UniProt P11309)
T31 construct: purchased DiscoveRx KINOMEscan (scanEDGE); Thermo Fisher SelectScreen (Z'-LYTE) for PLK-1
Method: as §1

ACVR1B = biological target: T32, ACVR1B (Homo sapiens, UniProt P36896)
T32 construct: purchased DiscoveRx KINOMEscan (scanEDGE); Thermo Fisher SelectScreen (Z'-LYTE) for PLK-1
Method: as §1

PDGFRA = biological target: T33, PDGFRA (Homo sapiens, UniProt P16234)
T33 construct: purchased DiscoveRx KINOMEscan (scanEDGE); Thermo Fisher SelectScreen (Z'-LYTE) for PLK-1
Method: as §1

ERBB2 = biological target: T34, ERBB2 (Homo sapiens, UniProt P04626)
T34 construct: purchased DiscoveRx KINOMEscan (scanEDGE); Thermo Fisher SelectScreen (Z'-LYTE) for PLK-1
Method: as §1

PKAC-alpha = biological target: T35, PKAC-alpha (Homo sapiens, UniProt P17612)
T35 construct: purchased DiscoveRx KINOMEscan (scanEDGE); Thermo Fisher SelectScreen (Z'-LYTE) for PLK-1
Method: as §1

[1] = biological target: T36, TYK2(JH1domain-catalytic) (Homo sapiens, UniProt P29597)
T36 construct: TYK2(JH1domain-catalytic); purchased DiscoveRx KINOMEscan (scanEDGE); Thermo Fisher SelectScreen (Z'-LYTE) for PLK-1
Method: as §1

SRPK3 = biological target: T37, SRPK3 (Homo sapiens, UniProt Q9UPE1)
T37 construct: purchased DiscoveRx KINOMEscan (scanEDGE); Thermo Fisher SelectScreen (Z'-LYTE) for PLK-1
Method: as §1

FGFR2 = biological target: T38, FGFR2 (Homo sapiens, UniProt P21802)
T38 construct: purchased DiscoveRx KINOMEscan (scanEDGE); Thermo Fisher SelectScreen (Z'-LYTE) for PLK-1
T38 sequence (P21802 22-821): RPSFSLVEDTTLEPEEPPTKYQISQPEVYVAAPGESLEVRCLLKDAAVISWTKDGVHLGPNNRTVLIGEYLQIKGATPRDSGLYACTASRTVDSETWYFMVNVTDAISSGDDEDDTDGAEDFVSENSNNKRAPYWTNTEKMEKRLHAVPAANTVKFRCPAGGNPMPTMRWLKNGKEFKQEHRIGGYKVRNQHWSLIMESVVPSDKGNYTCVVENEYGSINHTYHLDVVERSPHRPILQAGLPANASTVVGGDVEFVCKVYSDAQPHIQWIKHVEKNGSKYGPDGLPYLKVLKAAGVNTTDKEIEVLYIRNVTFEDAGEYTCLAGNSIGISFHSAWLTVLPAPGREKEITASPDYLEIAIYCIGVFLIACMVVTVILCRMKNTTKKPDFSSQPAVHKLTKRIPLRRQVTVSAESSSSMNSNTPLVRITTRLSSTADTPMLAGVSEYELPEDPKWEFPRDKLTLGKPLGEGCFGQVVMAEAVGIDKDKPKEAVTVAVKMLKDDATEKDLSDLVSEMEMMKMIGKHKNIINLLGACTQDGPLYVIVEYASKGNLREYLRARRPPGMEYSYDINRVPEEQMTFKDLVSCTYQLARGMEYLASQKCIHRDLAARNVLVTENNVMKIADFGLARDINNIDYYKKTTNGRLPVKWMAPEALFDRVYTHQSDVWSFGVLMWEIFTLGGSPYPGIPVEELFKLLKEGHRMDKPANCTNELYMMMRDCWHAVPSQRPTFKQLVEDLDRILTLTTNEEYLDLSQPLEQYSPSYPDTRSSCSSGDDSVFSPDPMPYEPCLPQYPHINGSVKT
Method: as §1

CDK9 = biological target: T39, CDK9 (Homo sapiens, UniProt P50750)
T39 construct: purchased DiscoveRx KINOMEscan (scanEDGE); Thermo Fisher SelectScreen (Z'-LYTE) for PLK-1
Method: as §1

TIE2 = biological target: T40, TIE2 (Homo sapiens, UniProt Q02763)
T40 construct: purchased DiscoveRx KINOMEscan (scanEDGE); Thermo Fisher SelectScreen (Z'-LYTE) for PLK-1
Method: as §1

CHEK1 = biological target: T41, CHEK1 (Homo sapiens, UniProt O14757)
T41 construct: purchased DiscoveRx KINOMEscan (scanEDGE); Thermo Fisher SelectScreen (Z'-LYTE) for PLK-1
Method: as §1

CDK11 = biological target: T42, CDK11 (Homo sapiens, UniProt Q9BWU1)
T42 construct: purchased DiscoveRx KINOMEscan (scanEDGE); Thermo Fisher SelectScreen (Z'-LYTE) for PLK-1
T42 sequence (Q9BWU1 whole entry): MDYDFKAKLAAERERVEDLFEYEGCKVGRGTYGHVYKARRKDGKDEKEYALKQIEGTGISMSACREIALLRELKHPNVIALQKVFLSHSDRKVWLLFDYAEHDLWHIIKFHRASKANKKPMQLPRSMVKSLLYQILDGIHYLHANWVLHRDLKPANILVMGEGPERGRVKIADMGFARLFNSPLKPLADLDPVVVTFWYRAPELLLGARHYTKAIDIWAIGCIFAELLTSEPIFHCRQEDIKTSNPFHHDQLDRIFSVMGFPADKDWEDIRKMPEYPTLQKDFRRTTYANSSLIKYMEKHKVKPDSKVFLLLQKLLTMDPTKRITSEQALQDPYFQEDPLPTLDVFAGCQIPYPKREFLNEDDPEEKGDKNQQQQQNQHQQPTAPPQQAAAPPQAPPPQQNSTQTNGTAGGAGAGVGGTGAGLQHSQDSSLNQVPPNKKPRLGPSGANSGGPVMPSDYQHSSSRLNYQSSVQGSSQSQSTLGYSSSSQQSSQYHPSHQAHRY
Method: as §1

CCOc1cc(C2CCN(C)CC2)ccc1Nc1ncc2c(n1)N(Cc1cc(C)cs1)[C@H](CC)C(=O)N2C [16k, (R)-2-((2-Ethoxy-4-(1-methylpiperidin-4-yl)phenyl)amino)-7-ethyl-5-methyl-8-((4-methylthiophen-2-yl)methyl)-7,8-dihydropteridin-6(5H)-one]
remaining binding at 1 µM (AXL): 98%
remaining binding at 1 µM (KIT(V559D,T670I)): 100%
remaining binding at 1 µM (PAK1): 100%
remaining binding at 1 µM (PIK3CG): 98%
remaining binding at 1 µM (ZAP70): 94%
remaining binding at 1 µM (PIM2): 86%
remaining binding at 1 µM (MLK1): 100%
remaining binding at 1 µM (BMPR2): 100%
remaining binding at 1 µM (EGFR(L858R)): 69%
remaining binding at 1 µM (YANK3): 100%
remaining binding at 1 µM (ADCK3): 100%
remaining binding at 1 µM (RAF1): 100%
remaining binding at 1 µM (PLK4): 100%
remaining binding at 1 µM (VEGFR2): 87%
remaining binding at 1 µM (KIT(D816V)): 100%
remaining binding at 1 µM (MET): 94%
remaining binding at 1 µM (BRAF): 100%
remaining binding at 1 µM (PDGFRB): 100%
remaining binding at 1 µM (JNK1): 64%
remaining binding at 1 µM (PAK2): 100%
remaining binding at 1 µM (ABL1-nonphosphorylated): 84%
remaining binding at 1 µM (TGFBR1): 94%
remaining binding at 1 µM (ULK2): 64%
remaining binding at 1 µM (PDPK1): 98%
remaining binding at 1 µM (SNARK): 100%
remaining binding at 1 µM (AKT1): 96%
remaining binding at 1 µM (FGFR3): 98%
remaining binding at 1 µM (FAK): 60%
remaining binding at 1 µM (LKB1): 82%
remaining binding at 1 µM (MAPKAPK2): 100%
remaining binding at 1 µM (PIM1): 97%
remaining binding at 1 µM (ACVR1B): 85%
remaining binding at 1 µM (PDGFRA): 96%
remaining binding at 1 µM (ERBB2): 100%
remaining binding at 1 µM (PKAC-alpha): 100%
remaining binding at 1 µM [1]: 100%
remaining binding at 1 µM (SRPK3): 100%
remaining binding at 1 µM (FGFR2): 100%
remaining binding at 1 µM (CDK9): 100%
remaining binding at 1 µM (TIE2): 99%
remaining binding at 1 µM (CHEK1): 100%
remaining binding at 1 µM (CDK11): 93%
